# Legend:
# Assay in all cases: relative viability (nuclei count vs DMSO), 5 days (fraction); higher = more cells survive
# [1] = compound: CN1C=C(C2=CC=CC=C21)/C=C\3/C4=C(C=CC=N4)NC3=O + Cc1nc(NC(=O)N2CCC[C@H]2C(N)=O)sc1-c1ccnc(C(C)(C)C(F)(F)F)c1 [Alpelisib] (partner 2 µM)
# Summary of the method: (§1)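 Relative viability is defined as nuclei in treated wells over nuclei in vehicle wells. Duplicate plates were run and medians reported. Lung cancer cell lines in 1536-well plates were dosed by pin tool one day after seeding, with one drug or with a fixed anchor-drug dose plus five library-drug doses (not always all listed) in √10 steps, and nuclei were counted after 5 days.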
# Trametinib + Linsitinib = compound: CC(=O)Nc1cccc(-n2c(=O)n(C3CC3)c(=O)c3c(Nc4ccc(I)cc4F)n(C)c(=O)c(C)c32)c1 [Trametinib] + C[C@]1(O)C[C@@H](c2nc(-c3ccc4ccc(-c5ccccc5)nc4c3)c3c(N)nccn32)C1 [Linsitinib] (partner 1 µM)
# Summary of the method: as §1
# [2] = compound: CN1C=C(C2=CC=CC=C21)/C=C\3/C4=C(C=CC=N4)NC3=O + CC(C)C[C@H](NC(=O)[C@H](Cc1ccccc1)NC(=O)c1cnccn1)B(O)O [Bortezomib] (partner 0.002 µM)
# Summary of the method: as §1
# [3] = compound: CN1C=C(C2=CC=CC=C21)/C=C\3/C4=C(C=CC=N4)NC3=O + C[C@@H](Oc1cc(-c2cnn(C3CCNCC3)c2)cnc1N)c1c(Cl)ccc(F)c1Cl [Crizotinib] (partner 1 µM)
# Summary of the method: as §1
Cell Line,relative viability ([1]; first compound 0.02 µM),relative viability ([1]; first compound 0.06325 µM),relative viability ([1]; first compound 0.2 µM),relative viability ([1]; first compound 0.6325 µM),relative viability ([1]; first compound 2 µM),relative viability (Trametinib + Linsitinib; first compound 0.0025 µM),relative viability (Trametinib + Linsitinib; first compound 0.007906 µM),relative viability (Trametinib + Linsitinib; first compound 0.025 µM),relative viability (Trametinib + Linsitinib; first compound 0.07906 µM),relative viability (Trametinib + Linsitinib; first compound 0.25 µM),relative viability ([2]; first compound 0.02 µM),relative viability ([2]; first compound 0.06325 µM),relative viability ([2]; first compound 0.2 µM),relative viability ([2]; first compound 0.6325 µM),relative viability ([2]; first compound 2 µM),relative viability ([3]; first compound 0.02 µM),relative viability ([3]; first compound 0.06325 µM),relative viability ([3]; first compound 0.2 µM),relative viability ([3]; first compound 0.6325 µM),relative viability ([3]; first compound 2 µM)
NCI-H2347,1.09,0.972,1.02,0.89,1.1,0.93,0.653,0.404,0.431,0.445,0.976,1.01,0.906,0.615,1,0.588,0.802,0.607,0.694,0.674
HARA,0.677,0.812,0.783,0.63,0.734,0.757,0.736,0.673,0.535,0.237,1.06,1.09,0.87,1.18,1.14,0.975,0.958,0.933,1.02,1.09
NCI-H2228,0.718,0.645,–,0.919,0.674,0.582,0.764,0.646,0.472,0.396,0.882,0.834,–,0.887,1.19,0.386,0.489,–,0.373,0.425
EKVX,0.765,0.763,0.795,0.725,0.703,0.875,0.757,0.767,0.632,0.282,1.05,0.79,0.946,1.04,0.972,0.835,0.927,0.913,0.792,0.876
HCC-827,0.969,0.992,–,0.978,0.984,0.958,0.893,0.944,0.886,0.753,0.898,1.02,–,1.03,1.03,0.835,0.916,–,0.96,0.978
NCI-H1755,0.872,0.922,0.944,0.836,0.858,0.847,0.82,0.764,0.847,0.801,0.953,0.889,0.868,0.953,0.87,0.855,0.802,0.827,0.836,0.919
NCI-H661,0.889,0.591,0.423,0.402,0.591,0.537,0.499,0.567,0.392,0.403,0.775,0.735,0.691,0.727,0.878,1.07,1.01,1.11,1.04,1.14
NCI-H23,0.628,0.522,–,0.602,0.689,0.438,0.356,0.277,0.313,0.226,1.02,0.982,–,0.938,1.21,0.453,0.504,–,0.62,0.624
HCC-366,0.296,0.328,0.284,0.31,0.267,0.538,0.288,0.196,0.133,0.116,0.892,0.985,1.08,1.16,1.08,0.351,0.387,0.579,0.472,0.398
EBC-1,0.727,0.776,0.894,0.823,0.784,1,1.15,0.456,0.407,0.189,0.473,0.524,0.51,0.572,0.494,0.233,0.182,0.192,0.183,0.207
LCLC-97TM1,0.205,–,–,0.208,0.202,0.185,0.195,0.147,0.133,0.119,–,0.444,–,0.521,0.517,0.232,–,–,0.331,0.419
NCI-H1299,1.06,1.14,1.14,1.1,1.06,0.955,0.953,0.9,0.726,0.386,1.05,0.957,0.965,1.06,0.988,0.937,0.945,0.911,1.07,0.901
EMC-BAC-2,0.673,0.452,0.736,0.768,0.799,0.744,0.754,0.634,0.674,0.537,0.901,1.05,1.01,1.05,1.14,0.644,0.714,0.668,0.757,0.832
NCI-H441,0.795,–,0.898,0.91,0.881,0.553,0.471,0.293,0.253,0.21,0.744,–,0.545,0.602,0.774,0.972,0.706,0.72,0.89,0.767
LCLC-103H,1.05,1.02,0.937,0.941,0.924,0.968,0.897,0.746,0.904,0.933,0.951,0.984,0.994,1.22,1.11,1.11,1.13,1.05,1.13,1.07
HOP-62,0.821,0.843,0.957,0.926,1.07,1.06,0.921,0.705,0.487,0.152,1.05,0.746,0.285,0.535,0.529,0.902,0.938,0.789,0.918,1.01
NCI-H1355,0.663,0.66,0.739,0.468,0.547,0.737,0.605,0.375,0.433,0.352,1.1,1.16,1.03,0.958,0.983,0.909,0.97,0.992,0.675,0.819

Cell Line,relative viability ([1]; first compound 0.02 µM),relative viability ([1]; first compound 0.06325 µM),relative viability ([1]; first compound 0.2 µM),relative viability ([1]; first compound 0.6325 µM),relative viability ([1]; first compound 2 µM),relative viability (Trametinib + Linsitinib; first compound 0.0025 µM),relative viability (Trametinib + Linsitinib; first compound 0.007906 µM),relative viability (Trametinib + Linsitinib; first compound 0.025 µM),relative viability (Trametinib + Linsitinib; first compound 0.07906 µM),relative viability (Trametinib + Linsitinib; first compound 0.25 µM),relative viability ([2]; first compound 0.02 µM),relative viability ([2]; first compound 0.06325 µM),relative viability ([2]; first compound 0.2 µM),relative viability ([2]; first compound 0.6325 µM),relative viability ([2]; first compound 2 µM),relative viability ([3]; first compound 0.02 µM),relative viability ([3]; first compound 0.06325 µM),relative viability ([3]; first compound 0.2 µM),relative viability ([3]; first compound 0.6325 µM),relative viability ([3]; first compound 2 µM)
COR-L23,0.764,0.698,0.718,0.724,0.589,0.874,0.851,0.827,0.639,0.306,1.01,0.953,1.19,0.866,1.04,0.631,0.576,0.752,0.622,0.671
HCC-44,0.737,0.74,0.722,0.564,0.705,0.734,0.592,0.334,0.43,0.321,0.888,0.8,0.858,0.756,0.847,0.793,0.73,0.722,0.712,0.715
A-427,1.08,1.02,–,1.08,1.13,1.11,1.14,0.631,0.825,0.432,0.939,0.9,–,1.03,1.21,0.924,0.775,–,1,1.16
IA-LM,0.972,0.549,0.906,0.736,0.681,0.574,0.553,0.142,0.218,0.145,1,0.873,0.554,0.768,0.696,0.732,0.724,0.668,0.615,0.521
NCI-H520,0.796,0.69,0.859,1.02,1.04,0.947,1.02,1.02,0.905,0.664,0.6,0.432,0.653,0.578,0.667,0.569,0.828,0.885,0.773,0.807
LXF-289,1.09,1.06,1.12,1.02,1.1,0.878,0.818,0.698,0.628,0.563,0.951,0.992,1.1,1.02,1.04,0.775,0.785,0.881,0.849,0.895
NCI-H2087,1.16,1.21,1.17,1.05,1.22,0.718,0.416,0.377,0.311,0.315,0.812,0.815,0.882,0.839,0.836,0.96,0.701,1.1,0.889,0.868
CAL-12T,1.47,0.924,1.1,1.16,1.06,0.79,0.607,0.484,0.428,0.341,0.904,0.882,0.945,1.08,1.04,0.552,0.654,0.549,0.81,0.743
NCI-H596,0.545,0.413,0.529,0.49,0.493,1.04,0.851,0.769,0.774,0.76,0.838,1.17,1.03,1.07,1.02,0.932,1.01,0.936,0.89,0.891
PC-14,0.99,1.03,1.19,0.906,1.04,0.996,0.89,0.787,0.59,0.434,0.826,0.831,0.981,0.898,0.991,0.91,0.791,1,0.856,0.958
NCI-H1915,1.03,1.1,1.08,1.18,1.04,1.14,1.05,0.671,0.674,0.278,0.913,1,0.962,1.11,1.15,0.767,0.873,0.87,1.07,0.973
NCI-H647,0.977,0.948,0.904,0.951,1.14,1.07,0.803,0.835,0.933,0.58,1.28,0.793,0.712,0.709,0.958,0.967,0.923,1.04,1.03,0.906
NCI-H322M,0.839,0.725,0.773,0.753,0.708,0.896,0.664,0.601,0.519,0.459,1.22,1.28,1.22,1.31,1.25,0.827,0.841,0.876,0.902,0.933
BEN,1.05,0.932,0.981,1,1.13,0.81,0.762,–,0.687,0.882,0.82,0.557,0.64,0.593,0.917,0.896,0.807,0.761,0.779,0.956
NCI-H2009,1.2,1.14,1.22,1.24,1.05,0.916,0.717,0.483,0.472,0.334,1.01,0.963,0.963,1.07,1,0.958,0.97,1.05,1.15,1.14
LC-2-ad,0.93,0.891,0.859,0.892,0.891,0.871,0.716,0.729,0.502,0.381,1,0.942,0.964,0.971,0.965,0.439,0.468,–,0.409,0.686

# — the supplement of paper PMC10307832
